# How the values were obtained:
# Adenosine receptor A2a = Adenosine receptor A2a (Rattus norvegicus, UniProt P30543)
# Description: Binding affinity against Adenosine A2a receptor determined using [3H]ZM-241385 as radioligand
# Adenosine receptor A1 = target: T1, Adenosine receptor A1 (Rattus norvegicus, UniProt P25099); assay: biochemical
# T1 sequence (P25099 whole entry): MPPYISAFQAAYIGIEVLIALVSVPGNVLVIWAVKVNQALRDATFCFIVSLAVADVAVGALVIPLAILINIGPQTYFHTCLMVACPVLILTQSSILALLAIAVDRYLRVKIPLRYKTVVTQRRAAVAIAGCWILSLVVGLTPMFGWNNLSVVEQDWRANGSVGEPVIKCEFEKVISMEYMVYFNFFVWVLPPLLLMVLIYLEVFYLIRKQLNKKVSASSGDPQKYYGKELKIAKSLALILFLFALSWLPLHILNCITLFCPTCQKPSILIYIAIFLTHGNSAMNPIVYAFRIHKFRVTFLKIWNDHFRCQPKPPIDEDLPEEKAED
# Description: Binding affinity against Adenosine A1 receptor from rat cerebral cortex was determined using [3H]DPCPX as radioligand
# Mus musculus = assay: Dose required for oral activity against mice catalepsy induced by 3 mg/kg haloperidol after s.c. administration; format: functional
# Adenosine receptor A2a, sequence (P30543 whole entry): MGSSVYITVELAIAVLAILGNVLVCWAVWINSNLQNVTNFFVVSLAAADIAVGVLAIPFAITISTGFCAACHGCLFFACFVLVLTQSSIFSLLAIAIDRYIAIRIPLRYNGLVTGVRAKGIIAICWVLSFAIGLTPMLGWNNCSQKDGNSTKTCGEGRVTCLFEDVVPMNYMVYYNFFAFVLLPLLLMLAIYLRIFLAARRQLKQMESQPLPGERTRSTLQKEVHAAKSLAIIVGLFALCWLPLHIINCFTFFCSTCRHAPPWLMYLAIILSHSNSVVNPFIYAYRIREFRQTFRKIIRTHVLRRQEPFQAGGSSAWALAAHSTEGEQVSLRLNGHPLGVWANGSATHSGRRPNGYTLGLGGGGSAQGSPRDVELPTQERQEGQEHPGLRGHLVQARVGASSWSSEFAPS
Ki (Adenosine receptor A2a) [nM],Ki (Adenosine receptor A1) [nM],SMILES,Dose (Mus musculus) [mg/kg]
93,> 500,Nc1nc(NCCCN2CCN(c3ccc(F)cc3F)CC2)nc2nc(-c3ccco3)nn12,
55,2600,Nc1nc(NCCN2CCN(c3ccc(F)cc3F)CC2)cc2nc(-c3ccco3)nn12,>10
24,> 500,Nc1nc(NCCN2CCN(c3c(F)cc(F)cc3F)CC2)nc2nc(-c3ccco3)nn12,
22,> 500,Nc1nc(NCCN2CCN(c3ccccc3)CC2)nc2nc(-c3ccco3)nn12,>10
,,CN(CCN1CCN(c2ccc(F)cc2F)CC1)c1nc(N)n2nc(-c3ccco3)nc2n1,3
92,> 500,Nc1nc(NCCN2CCN(c3c(F)cc(F)cc3F)CC2)cc2nc(-c3ccco3)nn12,
24,790,CN(CCN1CCN(c2c(F)cc(F)cc2F)CC1)c1cc2nc(-c3ccco3)nn2c(N)n1,
100,> 500,Nc1nc(NCCCN2CCN(c3c(F)cc(F)cc3F)CC2)nc2nc(-c3ccco3)nn12,
,> 500,Nc1nc(NCCCN2CCN(c3ccccc3)CC2)nc2nc(-c3ccco3)nn12,
,1100,Nc1nc(NCCN2CCN(c3ccc(F)cc3F)CC2)nc2nc(-c3ccco3)nn12,10
11,1500,CN(CCN1CCN(c2ccccc2)CC1)c1nc(N)n2nc(-c3ccco3)nc2n1,3
,750,CN(CCN1CCN(c2ccc(F)cc2F)CC1)c1cc2nc(-c3ccco3)nn2c(N)n1,3

SMILES,Ki (Adenosine receptor A2a) [nM],Ki (Adenosine receptor A1) [nM],Dose (Mus musculus) [mg/kg]
Nc1nc(N2CCN(c3c(F)cc(F)cc3F)CC2)nc2nc(-c3ccco3)nn12,29,,
